Among the data in ChEMBL document CHEMBL1154479, “Newer GABA derivatives for the treatment of epilepsy including febrile seizures: a bioisosteric approach” (Eur J Med Chem, 2008) are Activity values, retold here.

The subject of data set [1] is Rattus norvegicus. The experiment in a line: Anticonvulsant activity in Wistar rat assessed as protection against hyperthermia-induced seizures at 100 mg/kg, ip relative to control. The class given is functional. Conditions: route intraperitoneal.
In data set [2] the test system is Mus musculus. The experiment in a line: Neurotoxicity in Swiss albino mouse assessed as inability of animal to maintain equilibrium on the rod for at least 1 min at 300 mg/kg, ip after 4 hrs by rotarod test. The class given is toxicity, organism-based. Also on record: dose 300 mg/kg, route intraperitoneal. Conditions: in vivo.
For data set [3], the system named is Mus musculus. Kind of data set: Anticonvulsant activity in Swiss albino mouse assessed as inhibition of subcutaneous pentylenetetrazole-induced seizures at 300 mg/kg, ip administered 30 mins before PTZ challenge measured after 4 hrs post PTZ challenge. On the set-up: dose 300 mg/kg. The class given is functional, organism-based.
Data set [4] relates to Mus musculus. Kind of data set: Anticonvulsant activity in Swiss albino mouse assessed as inhibition of maximal electroshock-induced seizures at 300 mg/kg, ip administered 30 mins before electroshock measured after 0.5 hrs post electroshock. It is filed as functional, organism-based. Also on record: dose 300 mg/kg. Background: In the maximal electroshock model the usual endpoint is tonic extension of the hind limbs.

The test system of data set [5] is Mus musculus. The experiment in a line: Anticonvulsant activity in ip dosed Swiss albino mouse assessed as inhibition of subcutaneous pentylenetetrazole-induced seizures administered 30 mins before PTZ challenge measured after 0.5 hrs post PTZ challenge. It is filed as functional.
The test system of data set [6] is Mus musculus. Kind of data set: Neurotoxicity in ip dosed Swiss albino mouse assessed as inability of animal to maintain equilibrium on the rod for at least 1 min after 0.5 hrs by rotarod test. It is filed as toxicity, organism-based. Conditions: in vivo. On the technique in general: In the rotarod test animals must keep their balance on a rotating rod.
In data set [7] the test system is Mus musculus. Kind of data set: Anticonvulsant activity in ip dosed Swiss albino mouse assessed as inhibition of subcutaneous strychnine-induced seizures administered 30 mins before STY challenge measured after 4 hrs post STY challenge. It is filed as functional.
The test system of data set [8] is Mus musculus. The experiment in a line: Anticonvulsant activity in ip dosed Swiss albino mouse assessed as inhibition of subcutaneous strychnine-induced seizures administered 30 mins before STY challenge measured after 0.5 hrs post STY challenge. The class given is functional.
Data set [9] concerns Mus musculus. Kind of data set: Anticonvulsant activity in ip dosed Swiss albino mouse assessed as inhibition of subcutaneous picrotoxin-induced seizures administered 30 mins before PIC challenge measured after 0.5 hrs post PIC challenge. It is filed as functional.
Data set [10] has as its system Mus musculus. The experiment in a line: Neurotoxicity in Swiss albino mouse assessed as inability of animal to maintain equilibrium on the rod for at least 1 min at 300 mg/kg, ip after 0.5 hrs by rotarod test. The class given is toxicity, organism-based. The conditions noted are these: in vivo. Also on record: dose 300 mg/kg, route intraperitoneal.
Data set [11] deals with Mus musculus. The experiment in a line: Anticonvulsant activity in ip dosed Swiss albino mouse assessed as inhibition of subcutaneous picrotoxin-induced seizures administered 30 mins before PIC challenge measured after 4 hrs post PIC challenge. The class given is functional.
Data set [12] has as its system Mus musculus. The experiment in a line: Anticonvulsant activity in ip dosed Swiss albino mouse assessed as inhibition of subcutaneous pentylenetetrazole-induced seizures administered 30 mins before PTZ challenge measured after 4 hrs post PTZ challenge. The class given is functional.
Data set [13] concerns Mus musculus. The experiment in a line: Anticonvulsant activity in Swiss albino mouse assessed as inhibition of subcutaneous strychnine-induced seizures at 300 mg/kg, ip administered 30 mins before STY challenge measured after 4 hrs post STY challenge. It is filed as functional, organism-based. Also on record: dose 300 mg/kg.
Data set [14] has as its system Mus musculus. The experiment in a line: Anticonvulsant activity in Swiss albino mouse assessed as inhibition of subcutaneous pentylenetetrazole-induced seizures at 300 mg/kg, ip administered 30 mins before PTZ challenge measured after 0.5 hrs post PTZ challenge. It is filed as functional, organism-based. On the set-up: dose 300 mg/kg.

Structures are written as SMILES. Activity calls are given as the source filed them. The rule behind the calls is not given here.

For `O=C(O)CCCNC(=S)N/N=C/c1ccc(Cl)cc1`, the Activity is 49% in [1]; “Non-toxic” in [2]; 100 mg/kg in data set [5]; 100 mg/kg in [6]; 300 mg/kg in [7]; 300 mg/kg in data set [8]. For the same molecule, the result in [3] and in data set [4] was inactive.

For the molecule `O=C(O)CCCNC(=S)N/N=C/c1cccc([N+](=O)[O-])c1`, the Activity in data set [1] is 51%; in [9] it was 100 mg/kg; in data set [2], “Non-toxic”; in data set [10], “Non-toxic”; in data set [11], 100 mg/kg; in data set [8] it was 300 mg/kg. Further, the Activity in data set [12] was determined as 300 mg/kg. Further, the result in [4], in data set [13] and in data set [14] was inactive.
